Laboratory results reported in ChEMBL document CHEMBL1121805, “Nucleosides containing chemically reactive groups” (1981).

Columns and labels:
[1] = tested on: L1210; test: Percent inhibition of incorporation of [5-3H]-Uridine into DNA of L1210 cells; assay type: functional, Mus musculus
[2] = tested on: L1210; test: Percent inhibition of incorporation of [8-14C]-Adenine into DNA of L1210 cells; assay type: functional, Mus musculus
[3] = tested on: L1210; test: Percent inhibition of incorporation of [Me-3H]-Thymidine into DNA of L1210 cells; assay type: functional, Mus musculus
[4] = tested on: L1210; test: Cytotoxicity was evaluated against the L1210 cell lines in vitro; assay type: functional; details: Mus musculus, read-out: ED50 (the source's name)

| Compound | Inhibition [1] [%] | Inhibition [2] [%] | Inhibition [3] [%] | EC50 [4] [µg/mL] |
| --- | --- | --- | --- | --- |
| Cc1cn(C2CC(O)C(CCNC(=O)CBr)O2)c(=O)[nH]c1=O (centres undefined) | 60 | 67 | 52 |  |
| O=C(CBr)NC[C@H]1OC(n2cnc3c(O)ncnc32)[C@H](O)[C@@H]1O (some centres undefined) |  |  |  | < 5 |
